Laboratory results from patent publication US20230026969A1, “Oligopeptide, Testing Kit Thereof And Medical Composition Thereof” (China Medical University, priority 2019, published 2023).

Tests used:
OA cartilage [1] = assay: Intravital two-photon imaging of rhodamine-labeled peptides injected into rat joints; format: in vivo; conditions: for rhodamine fluorescence (red dots) in cartilage: intra-articular, two-photon microscopy
Experimental: The OA in rat model was established as previous described with slightly modification. In brief, the male SD rats≅300 grams in weight were used in this study. All animal experiments were approved by the China Medical University Committee for the Use and Care of Animals. Rats were kept under standard laboratory conditions (temperature 24° C., 12 h light-dark cycle), fed standard diet and drank tap water. Rats were anesthetized with 2.5% isofluorane (Abott, USA) in 70 ml/min flow rate before every injection. Rat joint OA was induced in the right knees in each group by injecting 0.2 ml of 4% papain solution (Sigma-Aldrich, USA) with 0.1 ml of 0.03 M cysteine (Sigma-Aldrich, USA) as activator. Same amount of saline was injected into the left knees in each group. Injection was repeated on the fourth and seventh days, respectively, and two weeks after the last papain injection, rat knees were removed for histological analysis to confirm the formation of OA. The established OA model in rats was further used in the following experiments for intraarticular injection.
The rhodamine-labeled C5-24 and scrambled peptides were separately injected into rat joints without (control) or with enzyme-induced OA. The C5-24 and scrambled peptides were chemically synthesized as accordingly (ABI, USA), modified with Biotin-PEG2-Iodoacetyl bridge linker (Thermo Fisher Scientific, USA) in HEPES buffer pH 8.0 through click reaction, further linked with avidin labeled rhodamine (Jacksonlmmuno, USA) and subjected to dialysis in ddH2O in M.W. 4K cut-off to remove the unlabeled rhodamine, further lyophilized and stored in −20° C. Aliquots of 1 μg rhodamine-labeled peptides in 40 μl PBS were used for intraarticular injection with using 30 G syringes.
Rat Knees were removed at 1-day post-injection, and both femoral condyles and tibias were cleaned thoroughly, immersed in PBS and sophisticatedly attached on 3.5 cm dish for 2-photon microscopic observation. The microscope system was operated using a near-infrared femtosecond laser (Mira 900, Coherent, USA) at the central wavelength of 810 nm, 76 MHz pulse repetition rate, and 200 fs pulse width for imaging. […] Thus, the wavelength of SHG from collagen fibers is 405 nm, while the TPEF from collagen, elastin, FAD, and NADH is approximately ranging from 450 to 650 nm. All images were obtained by a laser scanning unit (Fluoview 300, Olympus, Japan), a pair of two objective lenses for both lasers focusing and collection of photons (UPlanSApo 20×/0.75, Olympus, Japan), and two photomultiplier tubes respectively for SHG and TPEF detection (R3896, Hamamatsu, Japan). SHG and TPEF were filtered from the intense excitation laser background by a combination of band-pass filter (FF01-405/10, Semrock, USA) and color glass (BG39, Schott, Germany). And, then splitted by a dichroic mirror (FF435-Di01, Semrock, USA) and forward detected. […] Only the extinction ratio of linear polarization larger than 50:1 and the ellipticity of circular polarization (Imax/Imin) less than 1.1 after the focusing objective lens can then be used for the following two-photon imaging. The acquired images were mainly processed and analyzed with ImageJ/FiJi software (National Institutes of Health, Bethesda, Md., USA).

hPi-GL = assay: Immunocytofluorescent staining of phage clones on hPi-GL chondrocyte cell line; format: cell-based, human; conditions: phage clones on fixed hPi-GL cells
Experimental: For examination of those phage clones, slide-cultured hPi-GL cells were fixed with 4% paraformaldehyde in PBS at room temperature for 15 mins, washed with PBS and permeabilized with 0.1% Triton X-100 at room temperature for 30 mins, blocked for nonspecific binding with 1% BSA/PBST. The slide-cultured hPi-GL cells were separately incubated with 4×10^8 pfu, 8×10^8 pfu, and […] selected phage clones at 4° C. for 1 hour. After removing the unbound phages by washing, the cells were incubated with anti-M13 mouse mAb (GE Healthcare, Milwaukee, Wis., USA) as the primary antibody and R-Phycoerythrin-AffiniPure F(ab′)2 fragment goat anti-mouse IgG (Jackson ImmunoResearch Inc.) as the secondary antibody at room temperature for 1 hour, respectively. Then, washed with PBST, and counterstained with Hoechst 33258 (1 μg/ml; Sigma-Aldrich) at room temperature for 10 mins. The cells were analyzed for phage binding and localization by fluorescence using confocal microscopy (Zeiss LSM 700).

synovium = assay: Immunostaining of human OA tissue sections with phage clones: synovium; format: binding; conditions: HRP-labeled phage clones
Text: (§1) To examine localization of the targeting phages bound to articular tissues, human OA cartilage specimens were used for examination. Paraffin-embedded human OA tissue, synovium, and meniscus sections were retrieved from specimens of human OA surgical treatment under the approval of the Institutional Review Board of China Medical University Hospital (IRB no. CMUH108-REC1-046 and T-CMU-23728). Written informed consent was obtained, and all human tissue samples were coded for anonymity. All sections were dried, deparaffinized and rehydrated by standard protocols, and subsequently incubated with C5-87, C5-66, C5-83, C5-91, C5-24, E5-8, and C5-46 phage clones, or the control phage (5×10^8 pfu/μl). After washing, the sections were treated with anti-M13 mouse mAb (GE Healthcare) for 1 hour at room temperature. Following several washing steps, a biotin-free super sensitive polymer-HRP detection system (Biogenex, Fremont, Calif., USA) was used to detect immunoreactivity. The slides were lightly counterstained with hematoxylin, mounted with Aquatex (Merck, Darmstadt, Germany), and examined by light microscopy.

meniscus = assay: Immunostaining of human OA tissue sections with phage clones: meniscus; format: binding; conditions: HRP-labeled phage clones
Text: as §1

OA cartilage [2] = assay: Immunostaining of human OA tissue sections with phage clones: cartilage; format: binding; conditions: for binding activity to cartilage (DAB intensity): HRP-labeled phage clones
Text: as §1

[3] = rhodamine-labeled peptide, OA cartilage
[4] = rhodamine-labeled peptide, control cartilage

Substance: DYLWQYPDITWH [scrambled peptide, contains all the same amino acids as the original peptide but in new random order, reference compound]
- rhodamine fluorescence (red dots) in cartilage (OA cartilage [1]; [3]): sparse red dots
- rhodamine fluorescence (red dots) in cartilage (OA cartilage [1]; [4]): sparse red dots
- ability to bind to OA cartilage (OA cartilage [1]; scrambled control peptide): not able to bind to OA cartilage

Substance: D L Q Y W Y P I W D T H (DLQYWYPIWDTH; binding to collagen XII; DOMAIN (5)..(9); DOMAIN (10)..(12)) [C5-24, 1, from phage display]
- overall fluorescent peptides binding area, OA vs control cartilage (OA cartilage [1]; all slices, FIG. 1b): significant difference
- depth reached in the OA cartilage (z-axial plane) (OA cartilage [1]; [3]): at least 50 μm
- rhodamine fluorescence (red dots) in cartilage (OA cartilage [1]; [3]): red dots were observed
- rhodamine fluorescence (red dots) in cartilage (OA cartilage [1]; [4]): sparse red dots
- binding to hPi-GL (immunocytofluorescent staining, M13-PE) (hPi-GL): specific and remarkable binding
- binding activity to the synovium (DAB intensity) (synovium): no binding activity
- binding activity to the meniscus (DAB intensity) (meniscus): no binding activity
- specificity for targeting the territorial region of OA cartilage (OA cartilage [2]): best specificity
- binding activity to cartilage (DAB intensity) (OA cartilage [2]): superior binding activity

Substance: D A Y W H P V W V H D P (DAYWHPVWVHDP; binding to collagen XII; DOMAIN (4)..(8)) [C5-91, 2, from phage display]
- binding to hPi-GL (immunocytofluorescent staining, M13-PE) (hPi-GL): specific and remarkable binding
- binding activity to the synovium (DAB intensity) (synovium): no binding activity
- binding activity to the meniscus (DAB intensity) (meniscus): no binding activity
- binding activity to cartilage (DAB intensity) (OA cartilage [2]): superior binding activity
